Experiments:
human SGLT1 = target: T1, human SGLT1 (Homo sapiens, UniProt P13866); experiment: Cell-based assay for sodium-dependent glucose transport (14C-AMG uptake), CHOK-SGLT1; conditions: CHO-K1 cells stably expressing human SGLT1; for inhibition at 10 µM: 10 μM compound, read-out: CHOK-SGLT1 % Inh. @ 10 μM; for IC50: Na-dependent 14C-AMG uptake
T1 construct: expressed in transfected cells
T1 sequence (P13866 1-664): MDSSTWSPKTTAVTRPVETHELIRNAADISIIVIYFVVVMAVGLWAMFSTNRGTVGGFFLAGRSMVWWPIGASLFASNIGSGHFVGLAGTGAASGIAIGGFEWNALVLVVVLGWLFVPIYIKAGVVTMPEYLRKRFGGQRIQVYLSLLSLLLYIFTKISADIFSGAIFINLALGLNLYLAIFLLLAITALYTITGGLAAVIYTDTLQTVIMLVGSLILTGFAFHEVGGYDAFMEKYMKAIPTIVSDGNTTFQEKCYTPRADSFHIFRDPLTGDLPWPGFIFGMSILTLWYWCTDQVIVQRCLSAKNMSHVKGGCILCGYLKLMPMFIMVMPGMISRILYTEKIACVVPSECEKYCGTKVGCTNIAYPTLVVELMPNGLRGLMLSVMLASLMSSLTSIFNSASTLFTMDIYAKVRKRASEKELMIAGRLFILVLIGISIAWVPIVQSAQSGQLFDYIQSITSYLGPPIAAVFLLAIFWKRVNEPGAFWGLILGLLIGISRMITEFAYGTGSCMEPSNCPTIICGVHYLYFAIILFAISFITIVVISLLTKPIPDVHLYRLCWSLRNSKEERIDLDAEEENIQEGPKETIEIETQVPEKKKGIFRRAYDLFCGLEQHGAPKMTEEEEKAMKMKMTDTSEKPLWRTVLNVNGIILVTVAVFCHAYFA
Method: (§1) Cloning of the human SGLT1 and human SGLT2 cDNAs and construction of the mammalian expression vector: The human SGLT1 cDNA (Genbank M24847) was cloned from human small intestine. Human SGLT2 cDNA (Genbank M95549) was cloned from human kidney. Both full cDNAs were subcloned into pcDNA and sequenced to verify the integrity of the construct.
(§2) Generation of CHO-K1 cells stably expressing human SGLT1 or human SGLT2: Transfection of CHO-K1 cells was performed using DMRIE-C reagent (Life Technologies, Gaithersburg, Md.). Transfectants were then selected in the presence of the antibiotic G418 (Gibco-BRL, Grand Island, N.Y.) at 400 μg/ml. Individual clones were then characterized using the functional assay described below.
(§3) Cell-based assay for sodium-dependent glucose transport: Cell lines stably expressing human SGLT1 or SGLT2 were then used for functional analysis of Na+-dependent glucose uptake. Briefly, cells were plated at a density of 65,000 cells per well in a 96-well plate and allowed to grow for 48 hours. Cells were subsequently washed one time with Assay Buffer (50 mM HEPES pH […], 5 mM KCl, 1 mM MgCl2, 1 mM CaCl2 and 137 mM NaCl) and treated with compound in the absence or presence of NaCl for 15 minutes. Cells were then labeled with ^14C-α-methylglucopyranoside (AMG, Sigma, St. Louis, Mo.), a non-metabolizable glucose analog specific for sodium-dependent glucose transporters as previously described (Peng, H. and Lever J. E. Post-transcriptional regulation of Na^+/glucose cotransporter (SGLT1) gene expression in LLC-PK1 cells. J Biol Chem 1995; 270:20536-20542.). After 2 hours the labeled cells were washed three times with ice-cold PBS. After aspiration, cells were solubilized using Microscint 20 (Packard, Meriden, Conn.) and Na-dependent ^14C-AMG uptake was quantified by measuring radioactivity. Plates were counted in a TopCount (Packard, Meriden, Conn.). Results are reported as the % inhibition or IC50 value from a representative experiment. Variability for the functional assay was typically within 20%.

human SGLT2 = target: T2, human SGLT2 (Homo sapiens, UniProt P31639); experiment: Cell-based assay for sodium-dependent glucose transport (14C-AMG uptake), CHOK-SGLT2; conditions: CHO-K1 cells stably expressing human SGLT2; for IC50: Na-dependent 14C-AMG uptake; for inhibition at 10 µM: 10 μM compound, read-out: CHOK-SGLT2 % Inh. @ 10 μM
T2 construct: expressed in transfected cells
T2 sequence (P31639 1-672): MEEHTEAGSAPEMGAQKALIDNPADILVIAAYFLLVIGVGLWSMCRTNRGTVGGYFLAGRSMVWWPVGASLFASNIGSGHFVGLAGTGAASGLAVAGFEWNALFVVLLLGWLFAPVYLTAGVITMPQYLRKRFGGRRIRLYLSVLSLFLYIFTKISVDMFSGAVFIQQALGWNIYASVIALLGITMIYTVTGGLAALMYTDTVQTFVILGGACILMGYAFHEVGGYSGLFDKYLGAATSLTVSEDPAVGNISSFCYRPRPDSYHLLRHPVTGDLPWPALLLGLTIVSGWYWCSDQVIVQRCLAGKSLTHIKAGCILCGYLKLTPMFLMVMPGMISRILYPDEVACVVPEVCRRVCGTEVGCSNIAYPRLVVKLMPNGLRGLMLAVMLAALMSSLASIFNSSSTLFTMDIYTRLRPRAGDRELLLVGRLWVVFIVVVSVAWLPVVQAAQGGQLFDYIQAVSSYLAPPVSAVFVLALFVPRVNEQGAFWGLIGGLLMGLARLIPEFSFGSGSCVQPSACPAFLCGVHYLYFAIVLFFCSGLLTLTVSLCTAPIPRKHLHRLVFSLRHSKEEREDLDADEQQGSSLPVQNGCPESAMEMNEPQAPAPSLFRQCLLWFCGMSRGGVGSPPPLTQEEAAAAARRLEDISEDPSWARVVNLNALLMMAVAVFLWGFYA
Method: as §1, §2, §3

inhibition at 10 µM (human SGLT1) [%] | IC50 (human SGLT2) [nM] | IC50 (human SGLT1) [nM] | inhibition at 10 µM (human SGLT2) [%] | inhibition at 3 µM (human SGLT1; 3 μM compound, read-out: CHOK-SGLT1 % Inh. @ 3 μM) [%] | Structure (SMILES)
30 | 117 |  |  |  | CCc1ccc(Cc2c[nH]c3cc(C)cc(O[C@@H]4O[C@H](CO)[C@@H](O)[C@H](O)[C@H]4O)c23)cc1 [Example 32, 2-[3-(4-Ethyl-benzyl)-6-methyl-1H-indol-4-yloxy]-β-D-glucopyranoside]
 | 34 | 1890 |  |  | OC[C@H]1O[C@@H](Oc2cccc3[nH]cc(Cc4ccc(-c5ccsc5)cc4)c23)[C@H](O)[C@@H](O)[C@@H]1O [Example 37, 2-[3-(4-Thiophen-3-yl-benzyl)-1H-indol-4-yloxy]-β-D-glucopyranoside]
 | 142 | 560 |  |  | COc1ccc(CCc2c[nH]c3cccc(O[C@@H]4O[C@H](CO)[C@@H](O)[C@H](O)[C@H]4O)c23)cc1 [Example 7, 2-{3-[2-(4-Methoxy-phenyl)-ethyl]-1H-indol-4-yloxy}-β-D-glucopyranoside]
16 |  |  | 52 |  | CCc1ccc(Cc2c(C)[nH]c3cccc(O[C@@H]4O[C@H](CO)[C@@H](O)[C@H](O)[C@H]4O)c23)cc1 [Example 36, 2-[3-(4-Ethyl-benzyl)-2-methyl-1H-indol-4-yloxy]-β-D-glucopyranoside]
43 | 1430 |  |  |  | CCN(CC)C(=O)n1cc(Cc2ccc(OC)cc2)c2c(O[C@@H]3O[C@H](CO)[C@@H](O)[C@H](O)[C@H]3O)cccc21 [Example 21, 2-[1-Diethylcarbamoyl-3-(4-methoxy-benzyl)-1H-indol-4-yloxy]-β-D-glucopyranoside]
 | 98 | 823 |  |  | OC[C@H]1O[C@@H](Oc2cccc3[nH]cc(CCc4ccc5c(c4)OCO5)c23)[C@H](O)[C@@H](O)[C@@H]1O [Example 4, 2-[3-(2-Benzo[1,3]dioxol-5-yl-ethyl)-1H-indol-4-yloxy] β-D-glucopyranoside]
 | 67 |  |  | 42 | Cc1ccc(Cc2c[nH]c3cccc(O[C@@H]4O[C@H](CO)[C@@H](O)[C@H](O)[C@H]4O)c23)cc1F [Example 16, 2-[3-(3-Fluoro-4-methyl-benzyl)-1H-indol-4-yloxy]-β-D-glucopyranoside]
7 |  |  | 22 |  | CCc1ccc(C(=O)c2c[nH]c3cccc(O[C@@H]4O[C@H](CO)[C@@H](O)[C@H](O)[C@H]4O)c23)cc1 [Example 38, 2-[3-(4-Ethylbenzoyl)-1H-indol-4-yloxy]-β-D-glucopyranoside]
27 | 5040 |  |  |  | Cc1ccsc1Cc1c[nH]c2cccc(O[C@@H]3O[C@H](CO)[C@@H](O)[C@H](O)[C@H]3O)c12 [Example 34]
71 | 206 |  |  |  | CCCCCC(=O)OC[C@H]1O[C@@H](Oc2cccc3[nH]cc(Cc4ccc(CC)cc4)c23)[C@H](O)[C@@H](O)[C@@H]1O [Example 14, 2-[3-(4-Ethyl-benzyl)-1H-indol-4-yloxy]-6-O-hexanoyl-β-D-glucopyranoside]
 | 20 | 148 |  |  | OC[C@H]1O[C@@H](Oc2cccc3[nH]cc(CCc4ccc5c(c4)CCO5)c23)[C@H](O)[C@@H](O)[C@@H]1O [Example 1, 2-{3-[2-(2,3-Dihydro-benzofuran-5-yl)-ethyl]-1H-indol-4-yloxy} β-D-glucopyranoside]
69 | 1220 |  |  |  | COc1ccc(Cc2cn(C)c3cccc(O[C@@H]4O[C@H](CO)[C@@H](O)[C@H](O)[C@H]4O)c23)cc1 [Example 23, 2-[3-(4-Methoxy-benzyl)-1-methyl-1H-indol-4-yloxy]-β-D-glucopyranoside]
58 | 346 |  |  |  | OC[C@H]1O[C@@H](Oc2cccc3[nH]cc(Cc4ccc(Cl)cc4)c23)[C@H](O)[C@@H](O)[C@@H]1O [Example 28, 2-[3-(4-Chloro-benzyl)-1H-indol-4-yloxy]-β-D-glucopyranoside]
 | 24 | 1810 |  |  | CCc1ccc(Cc2c[nH]c3cccc(O[C@@H]4O[C@H](CO)[C@@H](O)[C@H](O)[C@H]4O)c23)cc1 [Example 11, 2-[3-(4-Ethyl-benzyl)-1H-indol-4-yloxy]-β-D-glucopyranoside]
 | 62 | 195 |  |  | Cn1cc(CCc2ccc3c(c2)CCO3)c2c(O[C@@H]3O[C@H](CO)[C@@H](O)[C@H](O)[C@H]3O)cccc21 [Example 3, 2-{3-[2-(2,3-Dihydro-benzofuran-5-yl)-ethyl]-1-methyl-1H-indol-4-yloxy} β-D-glucopyranoside]
 | 26 | 1310 |  |  | CSc1ccc(Cc2c[nH]c3cccc(O[C@@H]4O[C@H](CO)[C@@H](O)[C@H](O)[C@H]4O)c23)cc1 [Example 27, 2-[3-(4-Methylsulfanyl-benzyl)-1H-indol-4-yloxy]-β-D-glucopyranoside]
